Results published in US3947411A, “Novel 1-aryl-2-arylalkyl-3-or-4-[4'-(substituted-alkyl)piperazino-1']butanols- 2-or-butenes-1, and methods of manufacture thereof” (Warner-Lambert Company, priority 1972, dated 1976).
Converted amounts (≈) assume the structure as drawn.

Legend:
[1] = test system: Escherichia coli; assay: Agar well inhibition zone test against bacteria, Escherichia coli (Table III); conditions: quantity per well giving inhibition zone (500, 50, 5 μg tested); nutrient agar, 37°, 24 hours
Procedure: (§1) The efficacy of the compounds against bacteria was tested as follows:
(§2) The test organisms, in this case Staphylococcus aureus and Escherichia coli, were inoculated on nutrient agar as described in Example 12, wells were punched, and the solutions of the compounds were transferred to fill the wells. The quantity of compound in the wells amounted again to 500 μg, 50 μg and 5 μg.
(§3) After incubation a 37° for 24 hours the quantity of compound was determined at which an inhibition of the organism's growth, in the form of an inhibition zone around the corresponding well, occurred.

[2] = test system: Mycobacterium tuberculosis II 37 RV (typus humanus); assay: Efficacy against Mycobacteria, Tb-broth dilution series (Table I); type: cell-based; conditions: 504 h, Dubos Tb-broth + 10% bovine serum, 21 days, read-out: Minimum Inhibitory Concentration
[3] = test system: Candida albicans; assay: Agar well inhibition zone test against fungi, Candida albicans (Table II); conditions: quantity per well giving inhibition zone (500, 50, 5 μg tested); Sabouraud agar, 28°, 48 hours
[4] = test system: Aspergillus niger; assay: Agar well inhibition zone test against fungi, Aspergillus niger (Table II); conditions: quantity per well giving inhibition zone (500, 50, 5 μg tested); Sabouraud agar, 28°, 48 hours
Procedure: The efficacy of the compounds against fungi was tested as follows:
The test organisms, in this case the blastomycete Candida albicans and the mold Aspergillus niger, were inoculated onto Sabouraud agar plates by pouring a photometrically adjusted standard suspension of organisms on the plate. After inoculation, wells with a diameter of 5.0 mm were punched in the agar, and filled with 50 ul of the compound solution mentioned before. The quantity of compound applied thus amounted to 500 μg, 50 μg and 5 μg. After incubation at 28° for 48 hours, the quantity of compound was determined at which an inhibition of the organism's growth, in form of an inhibition zone around the corresponding well, was present.

[5] = test system: C. albicans; assay: Minimum inhibitory concentration for fungi, tube dilution, C. albicans (Table IV); conditions: Candida albicans, 48 h, read-out: Minimum Inhibitory Concentration, C. albicans
Procedure: (§4) A tube dilution series of the respective compound in Sabouraud nutrient broth, whose individual tubes contained concentrations of 1024 μg, 512 μg, 256 μg, 128 μg, 64 μg, 32 μg, 16 μg, 8 μg, 4 μg, 2 μg, 1.1 μg and 0.5 μg/ml, was prepared and inoculated with a photometrically standardized suspension of the test organisms or the spores thereof.

[6] = test system: Staphylococcus aureus; assay: Agar well inhibition zone test against bacteria, Staphylococcus aureus (Table III); conditions: quantity per well giving inhibition zone (500, 50, 5 μg tested); nutrient agar, 37°, 24 hours
Procedure: as §1, §2, §3

[7] = test system: C. albicans; assay: Minimum inhibitory concentration for fungi in presence of serum, C. albicans (Table VI); type: cell-based; conditions: Candida albicans; Sabouraud nutrient broth + 10% bovine serum, 28°C, 48 hours
[8] = Solubility in water; type: physicochemical; conditions: hydrochlorides or oxalates, read-out: solubilities (in water)
Procedure: The following list contains examples of those compounds which are made according to the methods disclosed. (The individual compounds are identified by elementary analyses and infrared spectra, by ultra-violet or nuclear resonance spectra, if necessary.) Individual melting points and solubilities (in water) are also given as is the method by which each compound is prepared.
The melting points and solubilities are given for the Hydrochlorides I - XVI; XVIII - XXVII; XXIX - XXXV; XXXVII - XLII; XLIV - LXII; LXIV - LXVII, and the Oxalates XVII; […]; XXXVI; LXIII.

[9] = test system: A. niger; assay: Minimum inhibitory concentration for fungi, tube dilution, A. niger (Table IV); conditions: Aspergillus niger, 48 h, read-out: Minimum Inhibitory Concentration, A. niger
Procedure: as §4

[10] = test system: Staph. aureus; assay: Minimum inhibitory concentration for bacteria, tube dilution, Staph. aureus (Table V); conditions: Staphylococcus aureus, 48 h, read-out: Minimum Inhibitory Concentration, Staph. aureus
Procedure: A tube dilution series of the respective compound in nutrient broth whose individual tubes contained concentrations of 1024 μg, 512 μg, 256 μg, 128 μg, 64 μg, 32 μg, 1 μg, 8 μg, 4 μg, 2 μg, 1.1 μg and 0.5 μg/ml was prepared and inoculated with a photometrically standardized suspension of the test organisms.

[11] = test system: A. niger; assay: Minimum inhibitory concentration for fungi in presence of serum, A. niger (Table VI); type: cell-based; conditions: Aspergillus niger; Sabouraud nutrient broth + 10% bovine serum, 28°C, 48 hours

Row | SMILES | Inhibition Area at μg, E. coli [1] [µg] | MIC [2] [µg/mL] | Inhibition Area at μg, Cand. albicans [3] [µg] | Inhibition Area at μg, Asp. niger [4] [µg] | MIC [5] [µg/mL] | Inhibition Area at μg, Staph. aureus [6] [µg] | MIC [7] [µg/mL] | solubility [8] [mg/mL] | MIC [9] [µg/mL] | MIC [10] [µg/mL] | MIC [11] [µg/mL]
1 | CC(N1CCN(CCN2CCCCC2)CC1)C(O)(Cc1ccccc1)Cc1ccccc1 (stereo not drawn) [IV, 1-phenyl-2-benzyl-3-[4'-(β-piperidino-ethyl)-piperazino-1']-butanol-2] | > 500 | 100 | 50 | 500 | 32 (≈ 73.5 µM) | 500 | 32 | 50 (≈ 115000 µM) | – | – | –
2 | CC1CCN(CCN2CCN(C(C)C(O)(Cc3ccccc3)Cc3ccccc3)CC2)CC1 (stereo not drawn) [IX, 1-phenyl-2-benzyl-3-{4'-[β-(4"-methyl-piperidino)-ethyl]-piperazino-1'}-butanol-2] | 500 | 100 | 50 | 50 | 16 (≈ 35.6 µM) | 500 | 32 | 50 (≈ 111000 µM) | 128 (≈ 285 µM) | – | –
3 | CC(N1CCNCC1)C(O)(Cc1ccccc1)Cc1ccccc1 (stereo not drawn) [L, 1-phenyl-2-benzyl-3-piperazino-butanol-2] | 500 | 500 | 50 | 50 | – | 500 | 512 | 10 (≈ 30800 µM) | – | – | –
4 | CCC(N1CCN(C)CC1)C(O)(Cc1ccccc1)Cc1ccccc1 (stereo not drawn) [LVIII, 1-phenyl-2-benzyl-3-(4'-methyl-piperazino-1')-pentanol-2] | 500 | 100 | 50 | 50 | 256 (≈ 726 µM) | 50 | – | < 10 | 128 (≈ 363 µM) | 256 (≈ 726 µM) | –
5 | CC1CN(CCN2CCN(C(C)C(O)(Cc3ccccc3)Cc3ccccc3)CC2)CCO1 (stereo not drawn) [VI, 1-phenyl-2-benzyl-3-{4'-[β-(2"-methyl-morpholino)-ethyl]-piperazino-1'}-butanol-2] | > 500 | 100 | 500 | 500 | – | > 500 | – | 100 (≈ 221000 µM) | – | – | –
6 | CC1CCCCN1CCN1CCN(C(C)C(O)(Cc2ccccc2)Cc2ccccc2)CC1 (stereo not drawn) [VII, 1-phenyl-2-benzyl-3-{4'-[β-(2"-methyl-piperidino)-ethyl]-piperazino-1'}-butanol-2] | > 500 | 10 | 50 | 500 | 32 (≈ 71.2 µM) | 500 | 32 | 50 (≈ 111000 µM) | – | – | –
7 | CC(N1CCN(CCCl)CC1)C(O)(Cc1ccccc1)Cc1ccccc1 (stereo not drawn) [XLV, 1-phenyl-2-benzyl-3-[4'-(β-chloro-ethyl)-piperazino-1']-butanol-2] | 500 | 100 | 50 | 500 | > 1020 | 50 | – | 25 (≈ 64600 µM) | – | > 1020 | –
8 | CC(N1CCN(Cc2ccccn2)CC1)C(O)(Cc1ccccc1)Cc1ccccc1 (stereo not drawn) [XXII, 1-phenyl-2-benzyl-3-[4'-(2"-pyridylmethyl)-piperazino-1']-butanol-2] | > 500 | 500 | 500 | 500 | – | 50 | 512 | 50 (≈ 120000 µM) | – | > 1020 | –
9 | CC(N1CCN(Cc2cccnc2)CC1)C(O)(Cc1ccccc1)Cc1ccccc1 (stereo not drawn) [XXIII, 1-phenyl-2-benzyl-3-[4'-(3"-pyridylmethyl)-piperazino-1']-butanol-2] | > 500 | 1000 | 500 | > 500 | – | 500 | – | 50 (≈ 120000 µM) | – | – | –
10 | CCN(CC)CCN1CCN(C(C)C(=Cc2ccccc2)Cc2ccccc2)CC1 (stereo not drawn) [XXVII, 1-phenyl-2-benzyl-3-[4'-(β-diethylamino-ethyl)-piperazino-1']-butene-1] | 500 | 10 | 5 | 5 | 256 (≈ 631 µM) | 50 | – | 100 (≈ 247000 µM) | 128 (≈ 316 µM) | 256 (≈ 631 µM) | –
11 | CC1CN(CCN2CCN(C(C)C(=Cc3ccccc3)Cc3ccccc3)CC2)CCO1 (stereo not drawn) [XXXII, 1-phenyl-2-benzyl-3-{4'-[β-(2-methylmorpholino)-ethyl]-piperazino-1'}-butene-1] | > 500 | 50 | 500 | 50 | – | 50 | – | 100 (≈ 231000 µM) | 128 (≈ 295 µM) | 128 (≈ 295 µM) | –
12 | CC1CCCCN1CCN1CCN(C(C)C(=Cc2ccccc2)Cc2ccccc2)CC1 (stereo not drawn) [XXXIII, 1-phenyl-2-benzyl-3-[4'-(β-2"-methyl-piperidinoethyl)-piperazino-1']-butene-1] | 500 | 20 | 5 | 50 | 256 (≈ 593 µM) | 50 | – | 100 (≈ 232000 µM) | 256 (≈ 593 µM) | 128 (≈ 297 µM) | –
13 | CC1CCN(CCN2CCN(C(C)C(=Cc3ccccc3)Cc3ccccc3)CC2)CC1 (stereo not drawn) [XXXV, 1-phenyl-2-benzyl-3-{4'-[β-(4"-methylpiperidino)-ethyl]-piperazino-1'}-butene-1] | 500 | – | 50 | 50 | 8 (≈ 18.5 µM) | 50 | 32 | 10 (≈ 23200 µM) | 8 (≈ 18.5 µM) | 256 (≈ 593 µM) | 128
